Results reported in PubChem BioAssay (NCI).
Where “and” joins values, the source holds several entries; their conditions need not be identical. Identical values can stand only once.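 Cells were grown in 96-well plates and exposed to each compound for 48 hours at five concentrations; endpoints were interpolated linearly between bracketing concentrations, or set to the highest concentration if not reached. Abbreviation: GI50, concentration required for 50% inhibition of growth. TGI is the concentration that stops growth completely.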

What was measured:
Assay in all cases: DTP human tumour cell line panel, 48 h
[1] = system: OVCAR-8 ovarian
[2] = system: A549 NSCLC
[3] = system: NCI-H522 lung
[4] = system: SNB-75 CNS
[5] = system: A498 renal
[6] = system: HS 578T breast
[7] = system: OVCAR-5 ovarian
[8] = system: T-47D breast
[9] = system: SK-MEL-2 melanoma
[10] = system: SF-295 CNS
[11] = system: HCT-116 colon
[12] = system: NCI-H226 lung
[13] = system: SF-539 CNS
[14] = system: SK-MEL-28 melanoma
[15] = system: BT-549 breast
[16] = system: K-562 leukemia
[17] = system: LOX IMVI melanoma
[18] = system: IGROV1 ovarian
[19] = system: NCI-H460 lung

SMILES	TGI [1] [µM]	TGI [2] [µM]	TGI [3] [µM]	TGI [4] [µM]	TGI [5] [µM]	TGI [6] [µM]	TGI [7] [µM]	TGI [8] [µM]	TGI [9] [µM]	TGI [10] [µM]	TGI [11] [µM]	TGI [12] [µM]	TGI [13] [µM]	TGI [14] [µM]	TGI [15] [µM]	TGI [16] [µM]	TGI [17] [µM]	TGI [18] [µM]	TGI [19] [µM]	GI50 [2]
CC(NC1=CC(=O)c2cccnc2C1=O)C(O)c1ccccc1 (configuration not stated)	17.6	5.13	3.57	3.05	8.82	8.14	4.69	18.7	4.48	2.63	7.79	4.44	3.75	3.1	3.59	5.93	3.16	6.18	2.78	–
COC(=O)c1cc(O)c(O)c(O)c1-c1c(O)c(O)c(O)c(SC[C@H](NC(=O)OCc2ccccc2)C(=O)OCc2ccccc2)c1C(=O)OC	52.7	36.3	59.3	68.1	> 100	> 100	> 100	> 100	52.9	> 100	35.7	48.2	73	> 100	> 100	70.2	49.4	84.2	> 100	–
COc1cc2cc3c4c(cc(OC)c(OC)c4c2cc1OC)CCN3C	> 50	> 50	23.9	27.8	> 38.1	> 50	49	4.1	30	> 31.8	> 25.7	26.7	40.5	> 50	> 23.6	> 50	16.7	> 43.7	> 27.3	–
CN(/N=C/c1ccccn1)C1=NCCCN1	> 100	> 100	> 100	> 100	> 100	> 100	> 100	> 100	> 100	> 100	> 100	> 100	> 100	> 100	> 100	> 100	> 100	> 100	> 100	–
CN(C)c1ccc(/C=N/c2nc3cc4sc(/N=C/c5ccc(N(C)C)cc5)nc4cc3s2)cc1	> 100	> 100	> 100	> 100	> 100	92.4	> 100	> 100	> 100	> 100	> 100	> 100	> 100	> 100	> 100	> 100	> 100	> 100	> 100	–
O=S(=O)(O)c1ccc2c(N=Nc3ccc(S(=O)(=O)O)c4ccccc34)c(O)c(S(=O)(=O)O)cc2c1	> 100	> 100	> 100	> 100	> 100	> 100	> 100	> 100	> 100	> 100	> 100	> 100	> 100	> 100	> 100	> 100	> 100	> 100	> 100	28.7 µM and > 100 µM
CN(C)C(=S)C(Cl)(c1ccccc1)c1ccccc1	> 100	> 100	> 100	> 100	> 100	> 100	> 100	61.7	66.8	> 100	> 100	> 100	> 100	> 100	> 100	> 100	> 100	> 100	> 100	–
O=C1OCC(c2ccc(Cl)cc2)=C1Cl	73.6	> 100	35.9	> 100	> 100	> 100	44.4	> 100	64.1	> 100	28.3	> 100	> 100	> 100	53.9	92.6	60.3	25.2	46.2	–
O=CC1C(Cl)=Nc2nc3ccccc3n2C1c1ccccc1 (configuration not stated)	52.9	76.6	27.3	33.7	23	25.4	79.6	41.2	27.3	> 100	70.5	38.1	34	30.3	29	37.3	29	43.8	> 100	–
